Reference: patent publication US20210047304A1, “Bromodomain Inhibitors” (AbbVie Inc., priority 2016, published 2021)

Target: BRD4 (BDI_K57-E168) (Homo sapiens, UniProt O60885)
Test: TR-FRET bromodomain binding assay, BRD4 BDI
Method: A time-resolved fluorescence resonance energy transfer (TR-FRET) assay was used to determine the affinities of compounds of the Examples listed in Table 1 for each bromodomain of BRD4. […] An Alexa647-labeled BET-inhibitor was used as the fluorescent probe in the assay.
(§1) Compound dilution series were prepared in DMSO via an approximately 3-fold serial dilution. Compound dilutions were added directly into white, low-volume assay plates (Perkin Elmer Proxiplate 384 Plus #6008280) using a Labcyte Echo in conjunction with Labcyte Access and Thermo Multidrop CombinL robotics. Compounds were then suspended in eight microliters (μL) of assay buffer (20 mM Sodium Phosphate, pH 6.0, 50 mM NaCl, 1 mM Ethylenediaminetetraacetic acid disodium salt dihydrate, 0.01% Triton X-100, 1 mM DL-Dithiothreitol) containing His-tagged bromodomain, Europium-conjugated anti-His antibody (Invitrogen PV5596) and Alexa-647-conjugated probe.
After a one-hour equilibration at room temperature, TR-FRET ratios were determined using an Envision multilabel plate reader (Ex 340, Em 495/520).
TR-FRET data were normalized to the means of 24 no-compound controls (“high”) and 8 controls containing 1 μM un-labeled probe (“low”). Percent inhibition was plotted as a function of compound concentration and the data were fit with the 4 parameter logistic equation to obtain IC50s. Inhibition constants (Ki) were calculated from the IC50s, probe Kd and probe concentration.
Compound dilution series for Compounds A-E were prepared in DMSO via an approximately 3-fold serial dilution from 0.47 mM to 7.8 nM.
as §1, with “Compound” for “Compound dilution series were prepared in DMSO via an approximately 3-fold serial dilution. Compound”
TR-FRET data were normalized to the means of 24 no-compound controls (“high”) and 8 controls containing 1 μM un-labeled probe (“low”). Percent inhibition was plotted as a function of compound concentration and the data were fit with the 4 parameter logistic equation to obtain IC50s. Inhibition constants (Ki) were calculated from the IC50s, probe Kd and probe concentration. Typical Z′ values were between 0.65 and 0.75. The minimum significant ratio was determined to evaluate assay reproducibility (Eastwood et al., (2006) J Biomol Screen, 11: 253-261). The MSR was determined to be 2.03 for BDI and 1.93 for BDII, and a moving MSR (last six run MSR overtime) for both BDI and BDII was typically <3.

Row | Compound | Ki [µM]
1 | CC(=O)N(CCO)[C@H]1CC[C@H](Oc2cc(=O)n(C)cc2-c2cc(C(C)(C)O)ccc2Oc2c(C)cc(F)cc2C)CC1 [Example 54, N-[trans-4-({5-[2-(4-fluoro-2,6-dimethylphenoxy)-5-(2-hydroxypropan-2-yl)phenyl]-1-methyl-2-oxo-1,2-dihydropyridin-4-yl}oxy)cyclohexyl]-N-(2-hydroxyethyl)acetamide] | 2.26
2 | Cc1cc(F)cc(C)c1Oc1ccc(C(C)(C)O)cc1-c1cn(C)c(=O)cc1O[C@H]1C[C@@H](C(C)(C)O)C1 [Example 94, 5-[2-(4-fluoro-2,6-dimethylphenoxy)-5-(2-hydroxypropan-2-yl)phenyl]-4-{[cis-3-(2-hydroxypropan-2-yl)cyclobutyl]oxy}-1-methylpyridin-2(1H)-one] | 1.67
3 | COC(=O)N[C@H]1CC[C@H](Oc2cc(=O)n(C)cc2-c2cc(C(C)(C)O)cnc2Oc2c(C)cc(F)cc2C)CC1 [Example 5, methyl (trans-4-{[2′-(4-fluoro-2,6-dimethylphenoxy)-5′-(2-hydroxypropan-2-yl)-1-methyl-6-oxo[1,6-dihydro[3,3′-bipyridine]]-4-yl]oxy}cyclohexyl)carbamate] | 1.96
4 | Cc1cc(F)cc(C)c1Oc1ccc(C(C)(C)O)cc1-c1cn(C)c(=O)cc1O[C@H]1CC[C@H](NC(=O)C23CCC(CO)(CC2)CC3)CC1 (relative stereo) [Example 110, N-[trans-4-({5-[2-(4-fluoro-2,6-dimethylphenoxy)-5-(2-hydroxypropan-2-yl)phenyl]-1-methyl-2-oxo-1,2-dihydropyridin-4-yl}oxy)cyclohexyl]-4-(hydroxymethyl)bicyclo[2.2.2]octane-1-carboxamide] | 3.65
5 | Cc1cccc(C)c1Oc1ccc(C(C)(C)O)cc1-c1cn(C)c(=O)cc1NC1CCN(S(C)(=O)=O)C1 (centres unmarked) [Example 12, 5-[2-(2,6-dimethylphenoxy)-5-(2-hydroxypropan-2-yl)phenyl]-4-{[1-(methanesulfonyl)pyrrolidin-3-yl]amino}-1-methylpyridin-2(1H)-one] | 0.553
6 | Cc1cc(F)cc(C)c1Oc1ccc(C(C)(C)O)cc1-c1cn(C)c(=O)cc1O[C@H]1CC[C@H](NC(=O)N2CCOCC2)CC1 [Example 122, N-[trans-4-({5-[2-(4-fluoro-2,6-dimethylphenoxy)-5-(2-hydroxypropan-2-yl)phenyl]-1-methyl-2-oxo-1,2-dihydropyridin-4-yl}oxy)cyclohexyl]morpholine-4-carboxamide] | 3.67
7 | Cc1cc(F)cc(C)c1Oc1ccc(C(C)(C)O)cc1-c1cn(C)c(=O)cc1NC1CCN(S(C)(=O)=O)CC1 [Example 9, 5-[2-(4-fluoro-2,6-dimethylphenoxy)-5-(2-hydroxypropan-2-yl)phenyl]-4-{[1-(methanesulfonyl)piperidin-4-yl]amino}-1-methylpyridin-2(1H)-one] | 3.68
8 | COCC1(C(=O)N[C@H]2CC[C@H](Oc3cc(=O)n(C)cc3-c3cc(C(C)(C)O)ccc3Oc3c(C)cc(F)cc3C)CC2)CC1 [Example 70, N-[trans-4-({5-[2-(4-fluoro-2,6-dimethylphenoxy)-5-(2-hydroxypropan-2-yl)phenyl]-1-methyl-2-oxo-1,2-dihydropyridin-4-yl}oxy)cyclohexyl]-1-(methoxymethyl)cyclopropane-1-carboxamide] | 4.1
9 | Cc1cccc(C)c1Oc1ccc(CN(C)C(N)=O)cc1-c1cn(C)c(=O)cc1O[C@H]1CC[C@H](NC(=O)C2(C)CC2)CC1 [Example 115, N-[trans-4-({5-[5-{[carbamoyl(methyl)amino]methyl}-2-(2,6-dimethylphenoxy)phenyl]-1-methyl-2-oxo-1,2-dihydropyridin-4-yl}oxy)cyclohexyl]-1-methylcyclopropane-1-carboxamide] | 2.92
10 | CC(=O)N(C)[C@H]1CC[C@H](Oc2cc(=O)n(C)cc2-c2cc(C(C)(C)O)ccc2Oc2c(C)cc(F)cc2C)CC1 [Example 16, N-[trans-4-({5-[2-(4-fluoro-2,6-dimethylphenoxy)-5-(2-hydroxypropan-2-yl)phenyl]-1-methyl-2-oxo-1,2-dihydropyridin-4-yl}oxy)cyclohexyl]-N-methylacetamide] | 2.83

Results, then the molecule that gave them:

Row | Ki [µM] | Compound
11 | 5.24 | Cc1cc(F)cc(C)c1Oc1ccc(C(C)(C)O)cc1-c1cn(C)c(=O)cc1O[C@H]1CC[C@H](n2cccnc2=O)CC1 [Example 143, 1-[trans-4-({5-[2-(4-fluoro-2,6-dimethylphenoxy)-5-(2-hydroxypropan-2-yl)phenyl]-1-methyl-2-oxo-1,2-dihydropyridin-4-yl}oxy)cyclohexyl]pyrimidin-2(1H)-one]
12 | 2.41 | Cc1cc(F)cc(C)c1Oc1ccc(C(C)(C)O)cc1-c1cn(C)c(=O)cc1O[C@H]1CC[C@H](N2CCCNC2=O)CC1 [Example 31, 1-[trans-4-({5-[2-(4-fluoro-2,6-dimethylphenoxy)-5-(2-hydroxypropan-2-yl)phenyl]-1-methyl-2-oxo-1,2-dihydropyridin-4-yl}oxy)cyclohexyl]tetrahydropyrimidin-2(1H)-one]
13 | 5.89 | Cc1cc(F)cc(C)c1Oc1ccc(C(C)(C)O)cc1-c1cn(C)c(=O)cc1O[C@H]1CC[C@H](N2C(=O)[C@H](C)N(C)C2=O)CC1 [Example 83, (5S)-3-[trans-4-({5-[2-(4-fluoro-2,6-dimethylphenoxy)-5-(2-hydroxypropan-2-yl)phenyl]-1-methyl-2-oxo-1,2-dihydropyridin-4-yl}oxy)cyclohexyl]-1,5-dimethylimidazolidine-2,4-dione]
14 | > 13 | Cc1cc(F)cc(C)c1Oc1ccc(C(C)(C)O)cc1-c1cn(C)c(=O)cc1O[C@H]1CC[C@H](NC(=O)N2CCNC2=O)CC1 [Example 123, N-[trans-4-({5-[2-(4-fluoro-2,6-dimethylphenoxy)-5-(2-hydroxypropan-2-yl)phenyl]-1-methyl-2-oxo-1,2-dihydropyridin-4-yl}oxy)cyclohexyl]-2-oxoimidazolidine-1-carboxamide]
15 | > 13 | Cc1cc(F)cc(C)c1Oc1ccc(C(C)(C)O)cc1-c1cn(C)c(=O)cc1O[C@H]1CC[C@H](N2C(=O)N(C)C3(CC3)C2=O)CC1 [Example 145, 6-[trans-4-({5-[2-(4-fluoro-2,6-dimethylphenoxy)-5-(2-hydroxypropan-2-yl)phenyl]-1-methyl-2-oxo-1,2-dihydropyridin-4-yl}oxy)cyclohexyl]-4-methyl-4,6-diazaspiro[2.4]heptane-5,7-dione]
16 | 0.891 | Cc1cc(F)cc(C)c1Oc1ccc(C(C)(C)O)cc1-c1cn(C)c(=O)cc1O[C@H]1CC[C@H](N2CC(C)(C)CC2=O)CC1 [Example 120, 4-{[trans-4-(4,4-dimethyl-2-oxopyrrolidin-1-yl)cyclohexyl]oxy}-5-[2-(4-fluoro-2,6-dimethylphenoxy)-5-(2-hydroxypropan-2-yl)phenyl]-1-methylpyridin-2(1H)-one]
17 | 9.88 | Cc1cc(F)cc(C)c1Oc1ccc(C(C)(C)O)cc1-c1cn(C)c(=O)cc1O[C@H]1CC[C@H](N2C(=O)CCCC2=O)CC1 [Example 80, 1-[trans-4-({5-[2-(4-fluoro-2,6-dimethylphenoxy)-5-(2-hydroxypropan-2-yl)phenyl]-1-methyl-2-oxo-1,2-dihydropyridin-4-yl}oxy)cyclohexyl]piperidine-2,6-dione]
18 | > 13 | Cc1cc(F)cc(C)c1Oc1ccc(C(C)(C)O)cc1-c1cn(C)c(=O)cc1O[C@H]1CC[C@@H](C(C)(C)O)CC1 [Example 74, 5-[2-(4-fluoro-2,6-dimethylphenoxy)-5-(2-hydroxypropan-2-yl)phenyl]-4-{[cis-4-(2-hydroxypropan-2-yl)cyclohexyl]oxy}-1-methylpyridin-2(1H)-one]
19 | 11.5 | Cc1cc(F)cc(C)c1Oc1ccc(C(C)(C)O)cc1-c1cn(C)c(=O)cc1O[C@H]1CC[C@H](N2C(=O)CC(C)(C)C2=O)CC1 [Example 90, 1-[trans-4-({5-[2-(4-fluoro-2,6-dimethylphenoxy)-5-(2-hydroxypropan-2-yl)phenyl]-1-methyl-2-oxo-1,2-dihydropyridin-4-yl}oxy)cyclohexyl]-3,3-dimethylpyrrolidine-2,5-dione]
20 | 2.03 | Cc1cc(F)cc(C)c1Oc1ccc(C(C)(C)O)cc1-c1cn(C)c(=O)cc1O[C@H]1CC[C@H](N2CCOCC2=O)CC1 [Example 40, 4-[trans-4-({5-[2-(4-fluoro-2,6-dimethylphenoxy)-5-(2-hydroxypropan-2-yl)phenyl]-1-methyl-2-oxo-1,2-dihydropyridin-4-yl}oxy)cyclohexyl]morpholin-3-one]
